“Also recorded” adds a separate entry of the source. No end group written: not given here.
How the values were obtained:
[1] = system: Mouse-derived cerebrovascular endothelial cells bEnd3 cells; experiment: High-content quantitative analysis of cellular uptake of red fluorescence-labeled nano complexes; assay type: cell-based; details: DiI-labeled nano complexes modified with the targeted peptide, 5 μg/mL by lipid mass, 6 h; FIG. 3
Experimental: High-content quantitative analysis was performed to determine cellular uptake of each of the above-mentioned nano complexes. Mouse-derived cerebrovascular endothelial cells bEnd3 cells were seeded in a 96-well plate at a density of 5000/well and cultured for 24 h. The original culture solution was aspirated and discarded, and 100 μL of the above-mentioned 8 red fluorescence-labeled nanostructure solutions (5 μg/mL, calculated by lipid mass) were added, respectively; the mixture was incubated in a cell incubator for 6 h, then fixed with 3.7% formaldehyde at 37° C. for 10 min, nuclear stained with Hoechest for 10 min, washed three times with PBS, and then photographed and subjected to quantitative analysis with a high-content Target Activation procedure. […]
Moreover, a red fluorescence-labeled targeted nano complex was prepared as described in the method of Example 2. Cellular uptake of a targeted peptide-modified nano complex was subjected to high-content quantitative analysis. The cerebrovascular endothelial cells were treated with targeted peptide-modified nano complexes containing targeted peptides of different ratios (1500:1, 1000:1, 500:1, 250:1, 100:1, 30:1, 10:1, and 5:1, the molar ratio of the lipid to the targeted peptide); the mixture was incubated in a cell incubator for 6 h, then fixed, nuclear stained, and subjected to high-content quantitative analysis.

[2] = system: cerebral vessels of AD model mice; experiment: Comparison of vascular binding capacity, two-photon imaging of brain after tail vein administration; assay type: in vivo, mouse; details: DiI-labeled nano complexes modified with the targeted peptide, 3 hours, FIG. 4
Experimental: The AD model animal mice were administered via tail veins with the above-mentioned red fluorescence-labeled nano complexes modified with targeted peptides (containing 8 bridge structure peptides), and were sacrificed 3 hours later. The mice were perfused with normal saline until the blood was not red, and the brain thereof was taken and photographed by a two-photon microscope. The nano complexes bound on cerebral vessels were imaged, and Image J image analysis software was used to analyze the fluorescence intensity of the red fluorescence-labeled nano complexes bound on the cerebral vessels.

| fluorescence intensity of nano complexes bound on cerebral vessels (bridge structure peptide screen) [2] | Substance | uptake of nano complex by cerebrovascular endothelial cells (bridge structure peptide screen) [1] |
| --- | --- | --- |
| dominant targeted peptides | AC-Phe-Ala-Glu-Lys-Phe-Lys-Glu-Ala-Val-Lys-Asp-Tyr-Phe-Ala-Lys-Phe-Trp-Asp-Gly-Ala-Gly-Ala-Glu-Leu-Lys-Val-Leu-Met-Glu-Lys-Glu-Leu (Ac-FAEKFKEAVKDYFAKFWDGAGAELKVLMEKEL) [R6, targeted peptide with bridge Gly-Ala-Gly-Ala; tested as modifier of DiI-labeled nano complex] | good effect on uptake; also recorded: better uptake |
| dominant targeted peptides | AC-Phe-Ala-Glu-Lys-Phe-Lys-Glu-Ala-Val-Lys-Asp-Tyr-Phe-Ala-Lys-Phe-Trp-Asp-Gly-Gly-Glu-Leu-Lys-Val-Leu-Met-Glu-Lys-Glu-Leu (Ac-FAEKFKEAVKDYFAKFWDGGELKVLMEKEL) [R1, targeted peptide with bridge Gly-Gly; tested as modifier of DiI-labeled nano complex] | good effect on uptake; also recorded: better uptake |
| – | AC-Phe-Ala-Glu-Lys-Phe-Lys-Glu-Ala-Val-Lys-Asp-Tyr-Phe-Ala-Lys-Phe-Trp-Asp-Gly-Gly-Ser-Gly-Gly-Glu-Leu-Lys-Val-Leu-Met-Glu-Lys-Glu-Leu (Ac-FAEKFKEAVKDYFAKFWDGGSGGELKVLMEKEL) [R7, targeted peptide with bridge Gly-Gly-Ser-Gly-Gly; tested as modifier of DiI-labeled nano complex] | good effect on uptake |
| – | AC-Phe-Ala-Glu-Lys-Phe-Lys-Glu-Ala-Val-Lys-Asp-Tyr-Phe-Ala-Lys-Phe-Trp-Asp-Gly-Ser-Ser-Ser-Gly-Gly-Glu-Leu-Lys-Val-Leu-Met-Glu-Lys-Glu-Leu (Ac-FAEKFKEAVKDYFAKFWDGSSSGGELKVLMEKEL) [R8, targeted peptide with bridge Gly-Ser-Ser-Ser-Gly-Gly; tested as modifier of DiI-labeled nano complex] | good effect on uptake |
| – | AC-Phe-Ala-Glu-Lys-Phe-Lys-Glu-Ala-Val-Lys-Asp-Tyr-Phe-Ala-Lys-Phe-Trp-Asp-Ile-Ala-Glu-Leu-Lys-Val-Leu-Met-Glu-Lys-Glu-Leu (Ac-FAEKFKEAVKDYFAKFWDIAELKVLMEKEL) [R2, targeted peptide with bridge Ile-Ala; tested as modifier of DiI-labeled nano complex] | good effect on uptake |
| dominant targeted peptides | AC-Phe-Ala-Glu-Lys-Phe-Lys-Glu-Ala-Val-Lys-Asp-Tyr-Phe-Ala-Lys-Phe-Trp-Asp-Ile-Ala-Ile-Glu-Leu-Lys-Val-Leu-Met-Glu-Lys-Glu-Leu (Ac-FAEKFKEAVKDYFAKFWDIAIELKVLMEKEL) [R5, targeted peptide with bridge Ile-Ala-Ile; tested as modifier of DiI-labeled nano complex] | good effect on uptake; also recorded: better uptake |
| – | AC-Phe-Ala-Glu-Lys-Phe-Lys-Glu-Ala-Val-Lys-Asp-Tyr-Phe-Ala-Lys-Phe-Trp-Asp-Ile-Gly-Glu-Leu-Lys-Val-Leu-Met-Glu-Lys-Glu-Leu (Ac-FAEKFKEAVKDYFAKFWDIGELKVLMEKEL) [R3, targeted peptide with bridge Ile-Gly; tested as modifier of DiI-labeled nano complex] | good effect on uptake |

| Substance | fluorescence intensity of nano complexes bound on cerebral vessels (bridge structure peptide screen) [2] | uptake of nano complex by cerebrovascular endothelial cells (bridge structure peptide screen) [1] |
| --- | --- | --- |
| AC-Phe-Ala-Glu-Lys-Phe-Lys-Glu-Ala-Val-Lys-Asp-Tyr-Phe-Ala-Lys-Phe-Trp-Asp-Gly-Ser-Gly-Glu-Leu-Lys-Val-Leu-Met-Glu-Lys-Glu-Leu (Ac-FAEKFKEAVKDYFAKFWDGSGELKVLMEKEL) [R4, targeted peptide with bridge Gly-Ser-Gly; tested as modifier of DiI-labeled nano complex] | dominant targeted peptides; also recorded: optimal targeted peptide | good effect on uptake; also recorded: better uptake; also recorded: best uptake |

From patent US12371691B2, “Nano complex for targeted repairing of neurovascular lesion, and preparation and use thereof” (SHANGHAI JIAOTONG UNIVERSITY SCHOOL OF MEDICINE, priority 2019, dated 2025)
